Key:
[1] = Selectivity index, ratio of IC50 for cytotoxicity against human A549 cells harboring wild type EGFR to IC50 for cytotoxicity against human HCC827 cells harboring EGFR del E746-A750 mutant assessed as reduction in cell viability measured after 48 hrs by CCK8 assay
[2] = Potency index, ratio of avitinib IC50 to test compound IC50 for cytotoxicity against human HBE cells assessed as reduction in cell viability measured after 48 hrs by CCK8 assay; assay type: cell-based; details: read-out: Ratio IC50
[3] = Selectivity index, ratio of IC50 for cytotoxicity against human NCI-H460 cells harboring wild type EGFR to IC50 for cytotoxicity against human HCC827 cells harboring EGFR del E746-A750 mutant assessed as reduction in cell viability measured after 48 hrs by CCK8 assay

C=CC(=O)Nc1cccc(Oc2nc(Nc3ccc(N4CCN(C)CC4)c(N)c3)nc3[nH]ccc23)c1
Selectivity Index [1]: 132 | selectivity ratio at 48 h [2]: 2 | Selectivity Index [3]: 579.7

Source: ChEMBL document CHEMBL4828722, “The synthesis and bioactivity of pyrrolo[2,3-d]pyrimidine derivatives as tyrosine kinase inhibitors for NSCLC cells with EGFR mutations” (Eur J Med Chem, 2021)
